# In paper PMC8234231, “In Vitro Inhibition of Renal OCT2 and MATE1 Secretion by Antiemetic Drugs” (International Journal of Molecular Sciences, 2021):
# Entries after “also recorded” stand apart in the source; their conditions may differ. Like-named read-outs stand apart in the source and are kept apart here.
# Assays:
# [1] = biological target: T1, human OCT2 (Homo sapiens, UniProt O15244); assay: Inhibition of ASP+ uptake in HEK293 cells overexpressing OCT2; format: cell-based; settings: for IC50: HEK293-OCT2, ASP+ 10 μM, 1 min, 37 °C, Avg ± SE (n = 3)
# T1 construct: expressed in transfected cells; gift of Dr. Kathy Giacomini, UCSF
# T1 sequence (O15244 1-555): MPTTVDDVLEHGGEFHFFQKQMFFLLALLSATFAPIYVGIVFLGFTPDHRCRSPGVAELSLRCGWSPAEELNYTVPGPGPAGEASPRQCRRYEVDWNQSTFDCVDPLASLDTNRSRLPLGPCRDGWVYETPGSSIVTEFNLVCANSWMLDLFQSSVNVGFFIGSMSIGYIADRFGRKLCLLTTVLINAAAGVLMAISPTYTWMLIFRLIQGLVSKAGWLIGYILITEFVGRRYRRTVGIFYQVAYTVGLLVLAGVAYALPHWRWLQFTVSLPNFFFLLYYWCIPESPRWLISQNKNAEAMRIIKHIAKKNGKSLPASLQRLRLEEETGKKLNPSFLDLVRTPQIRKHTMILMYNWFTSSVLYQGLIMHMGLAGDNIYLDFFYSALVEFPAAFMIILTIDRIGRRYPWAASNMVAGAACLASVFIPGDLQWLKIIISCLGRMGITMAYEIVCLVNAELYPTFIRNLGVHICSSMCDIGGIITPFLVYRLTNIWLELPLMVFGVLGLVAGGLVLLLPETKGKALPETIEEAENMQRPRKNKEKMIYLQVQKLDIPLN
# Procedure: (§1) After washing once with prewarmed Hank’s Buffered Saline Solution (HBSS), cells were preincubated for 30 min at 37 °C with various 5-HT3 antagonists for OCT2 cells or in a 30 mM NH4Cl solution in HBSS at pH 6.5 for MATE1 cells for intracellular acidification. Uptake into OCT2 cells was initiated through exposure to 10 μM of fluorescent substrate ASP^+ directly in the incubation media. Uptake into MATE1 cells was initiated by application of HBSS at pH 7.4 containing 5-HT3 antagonists and 10 μM of fluorescent substrate ASP^+. […] Media was removed and washed four times with ice-cold HBSS. Cells were lysed with 1% Triton X-100. […] Intracellular fluorescence was normalized to total protein concentration of cell lysates from each well using the bicinchoninic acid (BCA) assay (Pierce Biotechnology, Rockford, IL, USA). Experiments were repeated three separate times, with three to four replicates in each experiment.
# (§2) GraphPad Prism v6 (GraphPad Software, La Jolla, CA, USA) was used for statistical analysis.
# [2] = no reference given, cited from earlier work; for metabolized by cytochrome P450 enzymes in the liver: range for the named drugs together
# [3] = system: human OCT2 and MATE1; assay: Inhibition of basolateral-to-apical transcellular transport of ASP+ in OCT2/MATE1 double-transfected MDCK cells (Transwell); settings: for effect on B-to-A transport of ASP+: inhibitor 0.5–20 μM, 40–120 min, ASP+ 25 μM; for effect on transcellular transport of ASP+: inhibitor 10 and 20 μM
# Procedure: (§3) Control and OCT2/MATE1-expressing MDCK cells were evaluated for protein expression of OCT2 and MATE1 using SDS-PAGE and western blotting with specific primary antibodies (OCT2, sc292622 1:500 and MATE1, sc133390 1:250, Santa Cruz Biotechnology, Santa Cruz, CA, USA), followed by an antirabbit HRP-conjugated secondary antibody (1:1000, Sigma Aldrich, St. Louis, MO, USA) and Super Signal Western Dura Extended Duration Substrate (Pierce Biotechnology, Rockford, IL, USA). Detection was performed with a FluorChem imager (ProteinSimple, Santa Clara, CA, USA). Both MDCK cell lines were seeded on 0.4 μm transwell inserts (VWR, Radnor, PA, USA) at a density of 2 × 10^5 cells/cm^2. Transport experiments were performed 3 to 5 days after seeding. The integrity of MDCK monolayers was verified by measuring transepithelial electrical resistance (TEER) >150 Ω*cm^2 using an epithelial voltohmmeter, EVOM^2 (World Precision Instruments, Sarasota, FL). Proper formation of tight junctions was also verified by measurement of passive permeability of lucifer yellow in the basolateral-to-apical (B-to-A) direction. Lucifer yellow (20 μM) was applied to the basolateral chamber for 1 h, and media were collected from the apical chamber.
# (§4) After washing the cells once with Hank’s Buffered Saline Solution (HBSS) pH 7.4, transport studies were initiated after aspirating the wash buffer from both the apical and basal chambers. […] Cells were lysed with 1% Triton X-100. […] Intracellular fluorescence was normalized to total protein concentration of cell lysates from each transwell using the BCA assay. Experiments were performed in three individual Transwell inserts.
# [4] = system: empty vector (EV) HEK293 cells; assay: ASP+ uptake in empty vector (EV) HEK293 cells in presence of inhibitors; format: cell-based, human; settings: ASP+ 10 μM
# From the text: Media was removed and washed four times with ice-cold HBSS. Cells were lysed with 1% Triton X-100. […] Experiments were repeated three separate times, with three to four replicates in each experiment.
# [5] = biological target: T2, MATE1 (Homo sapiens, UniProt Q96FL8); assay: Inhibition of ASP+ uptake in HEK293 cells overexpressing MATE1; format: cell-based; settings: for IC50: HEK293-MATE1, ASP+ 10 μM, 1 min, 37 °C, Avg ± SE (n = 3)
# T2 construct: expressed in transfected cells; gift of Dr. Kathy Giacomini, UCSF
# T2 sequence (Q96FL8 1-570): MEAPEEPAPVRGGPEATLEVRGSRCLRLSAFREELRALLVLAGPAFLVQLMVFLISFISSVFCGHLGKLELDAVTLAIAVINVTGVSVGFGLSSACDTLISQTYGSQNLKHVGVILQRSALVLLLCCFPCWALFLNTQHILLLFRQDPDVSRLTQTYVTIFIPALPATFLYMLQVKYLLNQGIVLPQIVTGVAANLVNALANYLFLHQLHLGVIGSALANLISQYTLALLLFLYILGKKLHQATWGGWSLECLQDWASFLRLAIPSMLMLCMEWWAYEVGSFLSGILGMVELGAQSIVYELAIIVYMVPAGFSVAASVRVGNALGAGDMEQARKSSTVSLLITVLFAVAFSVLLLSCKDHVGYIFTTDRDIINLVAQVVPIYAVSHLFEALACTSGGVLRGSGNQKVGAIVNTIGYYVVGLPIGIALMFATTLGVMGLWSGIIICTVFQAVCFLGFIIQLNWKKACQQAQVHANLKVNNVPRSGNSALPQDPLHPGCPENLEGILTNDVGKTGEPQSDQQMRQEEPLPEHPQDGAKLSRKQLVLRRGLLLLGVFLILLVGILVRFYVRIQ
# Procedure: as §1, §2
# [6] = system: human OCT2 and MATE1; assay: Intracellular accumulation of ASP+ in OCT2/MATE1 double-transfected MDCK cells; format: cell-based; settings: 120 min; for increase in intracellular ASP+ accumulation: inhibitor 20 μM (highest concentration); for effect on intracellular ASP+ accumulation: inhibitor 0.5–20 μM, ASP+ 25 μM
# Procedure: Cells were incubated with 5-HT3 antagonists in the apical chamber in HBSS pH 6.0 and 5-HT3 antagonists with ASP^+ (25 μM) in the basolateral chamber in HBSS pH 7.4 and incubated at 37 °C for 120 min. To measure time-dependent transcellular transport, an aliquot of the incubation medium (100 μL) from the apical chamber (receiving chamber) was collected at 40, 60, 90, and 120 min and replaced with an equal volume of fresh buffer containing 5-HT3 antagonist or the positive control chemical at the original concentration. […] Cells were lysed with 1% Triton X-100. […] Experiments were performed in three individual Transwell inserts.
# [7] = system: OCT2 and MATE1; assay: Inhibition of basolateral-to-apical transcellular transport of ASP+ in OCT2/MATE1 double-transfected MDCK cells (Transwell); settings: human
# Procedure: as §3, §4
# [8] = probe ASP+ (25 μM, basolateral chamber)
compound,measurement,setting,value
CN1[C@@H]2CC[C@H]1C[C@@H](OC(=O)c1c[nH]c3ccccc13)C2 [Tropisetron],IC50,[1],31.3 ± 6.6 µM
same,half-life,[2],< 6 h
same,metabolized by cytochrome P450 enzymes in the liver,[2],48–95%
same,effect on B-to-A transport of ASP+,[3],"concentration-dependent inhibition of ASP^+ secretion, which was significant at 10 and 20 μM for all time-points"
same,effect on transcellular transport of ASP+,[3],similarly reduced the transcellular transport of ASP^+
same,effect on ASP+ uptake in EV cells,[4],stimulated additional ASP^+ uptake
same,IC50,[5],1.6 ± 0.9 µM
same,increase in intracellular ASP+ accumulation,[6],1.5 fold
CN1CCN(CCCN2c3ccccc3Sc3ccc(Cl)cc32)CC1 [prochlorperazine],effect on ASP+ uptake in OCT2-expressing HEK293 cells,[1]; ASP+ 10 μM,inhibited OCT2 activity across a range of concentrations
same,inhibition of MATE1 activity,"[5]; inhibitor 10 μM, HEK293-MATE1 (data not shown)",None of these drugs inhibited MATE1 activity
CN/C(=N/CCSCc1nc[nH]c1C)NC#N [Cimetidine],IC50,[1],24.5 ± 4 µM
same,"inhibition at 120 min, 5 μM",[7]; [8],18%
same,"inhibition at 120 min, 50 μM",[7]; [8],40%
same,effect on ASP+ uptake in EV cells,[4],had no influence on ASP^+ uptake
same,increase in intracellular accumulation of ASP+,[6]; cimetidine concentration not stated in the sentence (5 and 50 μM tested),1.8 fold
CCc1nc(N)nc(N)c1-c1ccc(Cl)cc1 [pyrimethamine],"inhibition at 120 min, 1 μM",[7],36%
same,increase in intracellular accumulation of ASP+,[6]; inhibitor 1 μM,1.3 fold
CN1C2CCCC1CC(NC(=O)c1nn(C)c3ccccc13)C2 (stereo not drawn) [Granisetron],IC50,[1],3.8 ± 1.6 µM
same,half-life,[2],8 to 9 h
same,metabolized by cytochrome P450 enzymes in the liver,[2],48–95%
same,effect on B-to-A transport of ASP+,[3],did not alter the B-to-A transport of ASP^+ at any concentration tested; also recorded: did not exhibit any significant inhibition
same,effect on ASP+ uptake in EV cells,[4],caused a small decrease in ASP^+ accumulation
same,IC50,[5],5 ± 1.1 µM
same,increase in intracellular ASP+ accumulation,[6],1.3 fold
C[C@@H](O[C@H]1OCCN(Cc2n[nH]c(=O)[nH]2)[C@H]1c1ccc(F)cc1)c1cc(C(F)(F)F)cc(C(F)(F)F)c1 [aprepitant],effect on ASP+ uptake in OCT2-expressing HEK293 cells,[1]; ASP+ 10 μM,had no impact on ASP^+ uptake
same,effect on ASP+ uptake in MATE1-expressing HEK293 cells,[5]; ASP+ 10 μM,had no impact on ASP^+ uptake
CCN(CC)CCNC(=O)c1cc(Cl)c(N)cc1OC [metoclopramide],effect on ASP+ uptake in OCT2-expressing HEK293 cells,[1],inhibited OCT2 activity across a range of concentrations
same,inhibition of MATE1 activity,[5],None of these drugs inhibited MATE1 activity
O=C(O[C@@H]1C[C@@H]2C[C@H]3C[C@H](C1)N2CC3=O)c1c[nH]c2ccccc12 [Dolasetron],IC50,[1],85.4 ± 3.4 µM
same,half-life,[2],8 to 9 h
same,effect on B-to-A transport of ASP+,[3],at 10 and 20 μM inhibited ASP^+ transport at 120 min only
same,effect on transcellular transport of ASP+,[3],similarly reduced the transcellular transport of ASP^+
same,IC50,[5],27.4 ± 2.8 µM
same,effect on intracellular ASP+ accumulation,[6],No significant changes in ASP^+ accumulation
O=C1c2cccc3c2[C@H](CCC3)CN1[C@@H]1CN2CCC1CC2 [Palonosetron],IC50,[1],2.2 ± 0.3 µM
same,half-life,[2],40 h
same,metabolized by cytochrome P450 enzymes in the liver,[2],48–95%
same,effect on B-to-A transport of ASP+,[3],"concentration-dependent inhibition of ASP^+ secretion, which was significant at 10 and 20 μM for all time-points"
same,effect on transcellular transport of ASP+,[3],similarly reduced the transcellular transport of ASP^+
same,effect on ASP+ uptake in EV cells,[4],stimulated additional ASP^+ uptake
same,IC50,[5],1.6 ± 0.6 µM
same,effect on intracellular ASP+ accumulation,[6],No significant changes in ASP^+ accumulation
